We go through 7 compounds from patent US10941157B2, “Pesticidal compositions and uses thereof” (Gilead Apollo, LLC, priority 2015, dated 2021).

What all share (assay type): cell-based
Experiment [1] concerns Fusarium virguliforme (Fv). The experiment is described as follows: In vitro pathogen growth inhibition assay, Fv. An outline of the steps:
(§1)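 Value reported is the compound concentration reaching ≥90% growth inhibition, from OD readings at 24 and 48 h after blank subtraction, confirmed visually. Inoculum was spores diluted in 17% V8 medium, except Rs, using 1.5 mm mycelial plugs in ¼ PDB; actual compound concentration corrected via OD600.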

Another experiment concerns Diplodia maydis (Dm). Put plainly: In vitro pathogen growth inhibition assay, Dm. The conditions noted are these: Stenocarpella maydis, 48 h. An outline of the steps: as §1
The next experiment has as its system Rhizoctonia solani (Rs). The experiment is described as follows: In vitro pathogen growth inhibition assay, Rs (mycelial plugs). The settings on record: Rhizoctonia solani, 48 h, mycelial plugs. An outline of the steps:
as §1

The subject of experiment [2] is Fusarium moniliforme (Fm). The experiment is described as follows: In vitro pathogen growth inhibition assay, Fm. The conditions noted are these: Fusarium verticillioides. In a few lines:
as §1

The subject of experiment [3] is Collectotrichum graminicola (Cg). The experiment is described as follows: In vitro pathogen growth inhibition assay, Cg. The conditions noted are these: 48 h. In a few lines: as §1
The next experiment has as its system Botrtyis cinerea (Bc). Put plainly: In vitro pathogen growth inhibition assay, Bc. The conditions noted are these: 48 h. An outline of the steps:
as §1

A further experiment concerns Septoria tritici (St). Put plainly: In vitro pathogen growth inhibition assay, St. The conditions noted are these: Zymoseptoria tritici, 48 h. In a few lines: as §1
Experiment [4] deals with Phytophthora capsici (Pc). Put plainly: In vitro pathogen growth inhibition assay, Pc. The conditions noted are these: 48 h. An outline of the steps:
as §1

The mark [5] stands for this setting: ≥90% inhibition, 48 hours vs 2% DMSO control, read-out: Compound Concentration (ppm) sufficient for ≥90% inhibition of growth, Fv.
The mark [6] stands for this setting: ≥90% inhibition, 48 hours vs 2% DMSO control, read-out: Compound Concentration (ppm) sufficient for ≥90% inhibition of growth, Dm.
Where [7] appears, read: ≥90% inhibition, 48 hours vs 2% DMSO control, read-out: Compound Concentration (ppm) sufficient for ≥90% inhibition of growth, Rs.
The mark [8] stands for this setting: ≥90% inhibition, 48 hours vs 2% DMSO control, read-out: Compound Concentration (ppm) sufficient for ≥90% inhibition of growth, Fm.
Setting [9] is: ≥90% inhibition, 48 hours vs 2% DMSO control, read-out: Compound Concentration (ppm) sufficient for ≥90% inhibition of growth, Cg.
Setting [10] is: ≥90% inhibition, 48 hours vs 2% DMSO control, read-out: Compound Concentration (ppm) sufficient for ≥90% inhibition of growth, Bc.
Setting [11] is: ≥90% inhibition, 48 hours vs 2% DMSO control, read-out: Compound Concentration (ppm) sufficient for ≥90% inhibition of growth, St.
Where [12] appears, read: ≥90% inhibition, 48 hours vs 2% DMSO control, read-out: Compound Concentration (ppm) sufficient for ≥90% inhibition of growth, Pc.
The mark [13] stands for this setting: ≥90% growth inhibition, 48 hours, vs 2% DMSO control, read-out: Compound Concentration (ppm) sufficient for ≥90% inhibition of Fv.
[14] abbreviates: ≥90% growth inhibition, 48 hours, vs 2% DMSO control, read-out: Compound Concentration (ppm) sufficient for ≥90% inhibition of Dm.
[15] abbreviates: ≥90% growth inhibition, 48 hours, vs 2% DMSO control, read-out: Compound Concentration (ppm) sufficient for ≥90% inhibition of Rs.
Where [16] appears, read: ≥90% growth inhibition, 48 hours, vs 2% DMSO control, read-out: Compound Concentration (ppm) sufficient for ≥90% inhibition of Fm.
The mark [17] stands for this setting: ≥90% growth inhibition, 48 hours, vs 2% DMSO control, read-out: Compound Concentration (ppm) sufficient for ≥90% inhibition of Cg.
[18] abbreviates: ≥90% growth inhibition, 48 hours, vs 2% DMSO control, read-out: Compound Concentration (ppm) sufficient for ≥90% inhibition of Bc.
[19] abbreviates: ≥90% growth inhibition, 48 hours, vs 2% DMSO control, read-out: Compound Concentration (ppm) sufficient for ≥90% inhibition of St.
Where [20] appears, read: ≥90% growth inhibition, 48 hours, vs 2% DMSO control, read-out: Compound Concentration (ppm) sufficient for ≥90% inhibition of Pc.

Values after ≈ are worked out from the molar mass of the structure shown. Like-named read-outs stand apart in the source and are kept apart here. Where only a bound is given, the exact number is not on record here.

With `COc1ccc(F)cc1[C@H](Cn1c(=O)n(C(C)(C)C(=O)NCC#N)c(=O)c2c(C)c(-n3nccn3)sc21)OC(C)C` [Compound I-160], the IC90 in experiment [1] (setting [5]) was 2 µg/mL (≈ 3.43 µM); with Diplodia maydis (Dm) (setting [6]) it was 10 µg/mL (≈ 17.1 µM); in the experiment with Rhizoctonia solani (Rs) (setting [7]) it was no less than 50 µg/mL; in experiment [2] (setting [8]) it was 2 µg/mL (≈ 3.43 µM); in experiment [3] (setting [9]) it was no less than 10 µg/mL; with Botrtyis cinerea (Bc) (setting [10]), 2 µg/mL (≈ 3.43 µM). Also, the IC90 (in the experiment on Septoria tritici (St) (setting [11]); in experiment [4] (setting [12])) was greater than 50 µg/mL each time.

Consider `COc1ccc(F)cc1[C@H](Cn1c(=O)n(C(C)(C)C(=O)N2CCCC2)c(=O)c2c(C)c(-n3cccn3)sc21)OC[C@H](C)O` [Compound I-161], for which the IC90 is 10 µg/mL (≈ 16.3 µM) in experiment [1] (setting [5]); 50 µg/mL (≈ 81.5 µM) with Diplodia maydis (Dm) (setting [6]); no less than 2 µg/mL in the experiment on Rhizoctonia solani (Rs) (setting [7]); 2 µg/mL (≈ 3.26 µM) in experiment [2] (setting [8]); 10 µg/mL (≈ 16.3 µM) in experiment [3] (setting [9]); 10 µg/mL (≈ 16.3 µM) in the experiment on Botrtyis cinerea (Bc) (setting [10]). Moreover, the IC90 (with Septoria tritici (St) (setting [11]); in experiment [4] (setting [12])) was greater than 50 µg/mL each time.

Take `COc1ccc(F)cc1[C@H](Cn1c(=O)n(C(C)(C)C(=O)N2CC=CC2)c(=O)c2c(C)c(-n3cccn3)sc21)OC1CCOCC1` [Compound I-162]: the IC90 in experiment [1] (setting [5]) turned out to be 10 µg/mL (≈ 15.7 µM); in the experiment on Diplodia maydis (Dm) (setting [6]) it was 10 µg/mL (≈ 15.7 µM); with Rhizoctonia solani (Rs) (setting [7]), 2 µg/mL (≈ 3.14 µM); in experiment [2] (setting [8]), 2 µg/mL (≈ 3.14 µM); in experiment [3] (setting [9]), 2 µg/mL (≈ 3.14 µM); in the experiment with Botrtyis cinerea (Bc) (setting [10]), 10 µg/mL (≈ 15.7 µM). Moreover, the IC90 (in the experiment on Septoria tritici (St) (setting [11]); in experiment [4] (setting [12])) was greater than 50 µg/mL in each case.

Regarding `COCCO[C@@H](Cn1c(=O)n(C(C)(C)C(=O)NC(C)C)c(=O)c2c(C)c(-n3cccn3)sc21)c1cc(F)ccc1OC` [Compound I-163], the IC90 in experiment [1] (setting [13]) was 2 µg/mL (≈ 3.32 µM); in the experiment on Diplodia maydis (Dm) (setting [14]), no less than 10 µg/mL; with Rhizoctonia solani (Rs) (setting [15]), 10 µg/mL (≈ 16.6 µM); in experiment [2] (setting [16]) it was 2 µg/mL (≈ 3.32 µM); in experiment [3] (setting [17]) it was 50 µg/mL (≈ 83.1 µM); in the experiment on Botrtyis cinerea (Bc) (setting [18]) it was 10 µg/mL (≈ 16.6 µM). Besides, the IC90 (with Septoria tritici (St) (setting [19]); in experiment [4] (setting [20])) was greater than 50 µg/mL each time.

For the compound `COCCO[C@@H](Cn1c(=O)n(C(C)(C)C(=O)N2CCCC2)c(=O)c2c(C)c(-n3nccn3)sc21)c1cc(F)ccc1OC` [Compound I-164], the IC90 in experiment [1] (setting [13]) was 2 µg/mL (≈ 3.25 µM); in the experiment on Diplodia maydis (Dm) (setting [14]), 10 µg/mL (≈ 16.3 µM); in the experiment on Rhizoctonia solani (Rs) (setting [15]) it was 50 µg/mL (≈ 81.3 µM); in experiment [2] (setting [16]), 2 µg/mL (≈ 3.25 µM); in experiment [3] (setting [17]) it was 10 µg/mL (≈ 16.3 µM); in the experiment on Botrtyis cinerea (Bc) (setting [18]) it was 50 µg/mL (≈ 81.3 µM). For the same compound, the IC90 (in the experiment on Septoria tritici (St) (setting [19]); in experiment [4] (setting [20])) was greater than 50 µg/mL in each case.

As to `COc1ccc(F)cc1[C@H](Cn1c(=O)n(C(C)(C)C(N)=O)c(=O)c2c(C)c(-n3nccn3)sc21)OCC(C)C` [Compound I-165], the IC90 in experiment [1] (setting [13]) was 2 µg/mL (≈ 3.58 µM); in the experiment on Diplodia maydis (Dm) (setting [14]), 2 µg/mL (≈ 3.58 µM); with Rhizoctonia solani (Rs) (setting [15]) it was 2 µg/mL (≈ 3.58 µM); in experiment [2] (setting [16]), no less than 0.08 µg/mL; in experiment [3] (setting [17]), 2 µg/mL (≈ 3.58 µM); in the experiment on Botrtyis cinerea (Bc) (setting [18]), 2 µg/mL (≈ 3.58 µM). Besides, the IC90 (in the experiment with Septoria tritici (St) (setting [19]); in experiment [4] (setting [20])) was greater than 50 µg/mL throughout.

For the compound `COc1ccc(F)cc1[C@H](Cn1c(=O)n(C(C)(C)C(=O)N2CCCCC2)c(=O)c2c(C)c(-n3cccn3)sc21)OC1CCOCC1` [Compound I-166], the IC90 in experiment [1] (setting [13]) was 2 µg/mL (≈ 3.06 µM); in the experiment on Diplodia maydis (Dm) (setting [14]), no less than 2 µg/mL; in the experiment on Rhizoctonia solani (Rs) (setting [15]) it was 10 µg/mL (≈ 15.3 µM); in experiment [2] (setting [16]) it was no less than 0.08 µg/mL; in experiment [3] (setting [17]), 2 µg/mL (≈ 3.06 µM); in the experiment on Botrtyis cinerea (Bc) (setting [18]) it was 2 µg/mL (≈ 3.06 µM). The IC90 in the experiment with Septoria tritici (St) (setting [19]) is no less than 50 µg/mL; in experiment [4] (setting [20]), greater than 50 µg/mL.
